Here are results for seven compounds from patent US10337049B2, “Universal methylation profiling methods” (THE TRUSTEES OF COLUMBIA UNIVERSITY IN THE CITY OF NEW YORK, priority 2013, dated 2019).

A short description of data set [1]: Laser flash photolysis, triplet energy transfer from thioxanthone. The following applies: 355 nm pulsed laser, argon saturated acetonitrile, quencher 0 to 0.25 mM.
Data set [2] can be described thus: Photoirradiation of 5-PhAll-OMC with 350 nm light in the presence of triplet sensitizer thioxanthone, HPLC analysis. The following applies: 20 min. Format: physicochemical. The text has this:
5-PhAll-OMC was irradiated with 350 nm light in the presence of the triplet photosensitizer thioxanthone (TX).
The new product was found 1 mass unit higher than the starting material 5-PhAll-OMC, indicating possible U analog was generated from 5-PhAll-OMC. […] The ^13C NMR spectra, shown in FIG. 27, unambiguously confirm the formation of a [2+2] cycloadduct in either straight or cross configuration.

Data set [3] is described as follows: Photo-irradiation of 5 position-modified deoxycytidine at about 300 nm, HPLC/UV/MS monitoring. The note with it: for photochemical conversion to U analog on photo-irradiation: about 300 nm, aqueous solution, up to 12 h. Format: physicochemical. As for the experimental part:
Photo-irradiation of 5-All-OMC at about 300 nm was then conducted in aqueous solution for up to 12 h, and the reaction products separated and monitored by HPLC and UV absorption.
Both C and 5-methyl-C remain intact after photo-irradiation under the same conditions. […] To further verify this conversion, 5-All-OMU was synthesized and characterized. […] The photochemically generated 5-All-OMU was also characterized by ^1HNMR.

Data set [4] can be described thus: Photo-irradiation of 16mer oligonucleotide, single base extension-MS analysis. Format: physicochemical. The note with it: primer 5′-TGCCGCACTC-3′, MS of elongated primer. Here is the method:
After HPLC purification, the modified 16mer was characterized by MALDI-TOF MS yielding a peak with MW of 5001, equal to the calculated mass. Then photo-irradiation of oligo [NT] ID NO: 1) was conducted to convert C* to a U analog. The outcome for conversion of C* in DNA was detected by using single base extension-MS analysis (FIG. 7). In this analysis, the photo-irradiated oligonucleotide was annealed with a primer […] 2964) (SEQ ID NO: 2), then incubated with ddNTPs and DNA polymerase. With the aid of DNA polymerase, one of the 4 ddNTPs can be selectively incorporated onto the 3' end of the primer. Photo-chemistry induced conversion of C to U should be able to direct the incorporation of ddA, resulting in an elongated primer with a MW of 3261, otherwise ddG should be incorporated giving an elongated primer of MW 3277. […] In the control experiment, photo-irradiation of the unmodified counterpart [NT] ID NO: 3) was conducted under the same conditions. […] We also measured possible photoirradiation-induced DNA damage. Under the conditions we used (300 nm, over 10 h) no DNA damage was observed.

In a further data set the test system is pCa17 plasmid. Put plainly: in vivo functional assay / restriction protection assay of M.SssI variants (HpaII digestion of isolated plasmid). The following applies: 200 ng plasmid, 1 U HpaII, 37° C., 1 hour, agarose gel.

Consider `OCC=Cc1ccccc1` [cinnamyl alcohol], for which the “rate constant of quenching of thioxanthone triplet (triplet energy transfer), kq” value in data set [1] came out at 7.8e+09 M⁻¹ s⁻¹.
With `O=c1c2ccccc2sc2ccccc12` [TX, thioxanthone], the “concentration of the sensitizer after photoirradiation” value in data set [2] was “remained unchanged”.
With `Nc1cc[nH]c(=O)n1` [C, Cytosine], in data set [3], the “photochemical conversion to U analog on photo-irradiation” value (“photochemical conversion to U analog” for short) is on record as “remain intact”. In data set [4], the “ddNTP incorporated in single base extension after photo-irradiation of template” value was “ddATP”.
Take “5′-TACGACGAGTGCGGCA-3′: unmodified counterpart 16mer, control (DNA, backbone not given here)”: the “ddNTP incorporated in single base extension after photo-irradiation of template” value in data set [4] is “ddGTP”.
Take `Cc1c[nH]c(=O)nc1N` [5-methyl-C, 5-methylcytosine]: the “photochemical conversion to U analog” value in data set [3] is recorded as “remain intact”.
On to “wild-type: wild type CpG specific DNA methyltransferase M.SssI expressed from pCAL7”, for which, in the data set on pCa17 plasmid, the “resistance of isolated M.SssI expressing plasmid to HpaII digestion” value is reported as “completely resistant”.
`C=CCOCc1cn([C@H]2C[C@H](O)[C@@H](CO)O2)c(=O)nc1N` [5-All-OMC, 5-allyloxymethyl-dC]: the “photochemical conversion to U analog” value in data set [3] was “high efficiency”. The “HPLC profile during photo-irradiation” value in data set [3] (after 3 h of irradiation) is given as “the main peak is the starting material”. Besides, the “HPLC profile during photo-irradiation, starting material” value in data set [3] (after 12 h photo-irradiation) is given as “mostly consumed”.
